Assay results: PubChem BioAssay AID1963869 (Molecular Pharmacology Branch, DTP, NCI, 2024)
Calls of active or inactive are those of the source. Rule for the calls: active = viability on the fitted dose curve at most 10% of control; inactive = the rest.

Tested on: KRAS patient-derived spheroids with HUVEC/MSC, viability
Assay: Anticancer human tumor 323965-272-R-J2-PDC patient-derived pancreatic carcinoma cell line growth inhibition [KRAS2]
Conditions: for IC50: curve of first compound; for viability, T/C: stronger effect = lower value
Outline: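 Combination screen of spheroid viability in tumor-cell co-cultures with endothelial (HUVEC) and mesenchymal stem cell stroma. Each agent was tested in half-log dilutions, topping at clinical Cmax or at 10 microM without a known Cmax.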

[1] = second compound 0.1 µM, first compound 0.01 µM
[2] = second compound 0.1 µM, first compound 0.0316 µM
[3] = second compound 0.1 µM, first compound 0.1 µM
[4] = second compound 0.1 µM, first compound 0.316 µM
[5] = second compound 0.1 µM, first compound 1 µM
[6] = second compound 0.1 µM, first compound 3.16 µM
[7] = second compound 0.316 µM, first compound 0.01 µM
[8] = second compound 0.316 µM, first compound 0.0316 µM
[9] = second compound 0.316 µM, first compound 0.1 µM
[10] = second compound 0.316 µM, first compound 0.316 µM
[11] = second compound 0.316 µM, first compound 1 µM
[12] = second compound 0.316 µM, first compound 3.16 µM
[13] = second compound 1 µM, first compound 0.01 µM
[14] = second compound 1 µM, first compound 0.0316 µM
[15] = second compound 1 µM, first compound 0.1 µM
[16] = second compound 1 µM, first compound 0.316 µM
[17] = second compound 1 µM, first compound 1 µM
[18] = second compound 1 µM, first compound 3.16 µM
[19] = second compound 3.16 µM, first compound 0.01 µM
[20] = second compound 3.16 µM, first compound 0.0316 µM
[21] = second compound 3.16 µM, first compound 0.1 µM
[22] = second compound 3.16 µM, first compound 0.316 µM
[23] = second compound 3.16 µM, first compound 1 µM
[24] = second compound 3.16 µM, first compound 3.16 µM
[25] = second compound 10 µM, first compound 0.01 µM
[26] = second compound 10 µM, first compound 0.0316 µM
[27] = second compound 10 µM, first compound 0.1 µM
[28] = second compound 10 µM, first compound 0.316 µM
[29] = second compound 10 µM, first compound 1 µM
[30] = second compound 10 µM, first compound 3.16 µM
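Throughout, for IC50: spheroids exposed to agents for 7 days.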
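Throughout, for viability, T/C: spheroids exposed to agents for 7 days; 100% = DMSO vehicle control viability.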

Structure (SMILES): CC(=O)OC12COC1CC(O)C1(C)C(=O)C(O)C3=C(C)C(OC(=O)C(O)C(NC(=O)OC(C)(C)C)c4ccccc4)CC(O)(C(OC(=O)c4ccccc4)C21)C3(C)C (stereo not given) + CC1OCC2(CCN(c3cnc(Sc4ccnc(N)c4Cl)c(N)n3)CC2)C1N
- IC50 (second compound 0.1 µM): < 0.01 µM
- IC50 (second compound 0.316 µM): < 0.01 µM
- IC50 (second compound 1 µM): < 0.01 µM
- IC50 (second compound 3.16 µM): < 0.01 µM
- IC50 (second compound 10 µM): < 0.01 µM
- viability, T/C [1]: 26.3%
- viability, T/C [2]: 25.6%
- viability, T/C [3]: 25.5%
- viability, T/C [4]: 21.7%
- viability, T/C [5]: 27%
- viability, T/C [6]: 27.7%
- viability, T/C [7]: 23.8%
- viability, T/C [8]: 23.9%
- viability, T/C [9]: 21.3%
- viability, T/C [10]: 19.8%
- viability, T/C [11]: 23%
- viability, T/C [12]: 23.5%
- viability, T/C [13]: 34.2%
- viability, T/C [14]: 33.5%
- viability, T/C [15]: 31.2%
- viability, T/C [16]: 32.4%
- viability, T/C [17]: 37.2%
- viability, T/C [18]: 39.7%
- viability, T/C [19]: 16.9%
- viability, T/C [20]: 16.3%
- viability, T/C [21]: 14.8%
- viability, T/C [22]: 14.1%
- viability, T/C [23]: 15.2%
- viability, T/C [24]: 17.2%
- viability, T/C [25]: 18.1%
- viability, T/C [26]: 16.5%
- viability, T/C [27]: 15.9%
- viability, T/C [28]: 12.3%
- viability, T/C [29]: 13.9%
- viability, T/C [30]: 16.7%

Structure (SMILES): CN(C)C/C=C/C(=O)Nc1cc2c(Nc3ccc(F)c(Cl)c3)ncnc2cc1O[C@H]1CCOC1 + CC1OCC2(CCN(c3cnc(Sc4ccnc(N)c4Cl)c(N)n3)CC2)C1N
- IC50 (second compound 0.1 µM): > 0.1 µM
- IC50 (second compound 0.316 µM): 0.000979 µM
- IC50 (second compound 1 µM): > 0.1 µM
- IC50 (second compound 3.16 µM): < 0.000316 µM
- IC50 (second compound 10 µM): > 0.1 µM
- viability, T/C (second compound 0.1 µM, first compound 0.000316 µM): 68.4%
- viability, T/C (second compound 0.1 µM, first compound 0.001 µM): 75.9%
- viability, T/C (second compound 0.1 µM, first compound 0.00316 µM): 65.4%
- viability, T/C [1]: 57.8%
- viability, T/C [2]: 57.7%
- viability, T/C [3]: 58.6%
- viability, T/C (second compound 0.316 µM, first compound 0.000316 µM): 63%
- viability, T/C (second compound 0.316 µM, first compound 0.001 µM): 49%
- viability, T/C (second compound 0.316 µM, first compound 0.00316 µM): 48.1%
- viability, T/C [7]: 38.1%
- viability, T/C [8]: 41.1%
- viability, T/C [9]: 44.6%
- viability, T/C (second compound 1 µM, first compound 0.000316 µM): 96.4%
- viability, T/C (second compound 1 µM, first compound 0.001 µM): 95.8%
- viability, T/C (second compound 1 µM, first compound 0.00316 µM): 78.5%
- viability, T/C [13]: 75.2%
- viability, T/C [14]: 64.6%
- viability, T/C [15]: 63.3%
- viability, T/C (second compound 3.16 µM, first compound 0.000316 µM): 39%
- viability, T/C (second compound 3.16 µM, first compound 0.001 µM): 33%
- viability, T/C (second compound 3.16 µM, first compound 0.00316 µM): 27.4%
- viability, T/C [19]: 27.7%
- viability, T/C [20]: 28.6%
- viability, T/C [21]: 34.7%
- viability, T/C (second compound 10 µM, first compound 0.000316 µM): 107%
- viability, T/C (second compound 10 µM, first compound 0.001 µM): 96.9%
- viability, T/C (second compound 10 µM, first compound 0.00316 µM): 70.5%
- viability, T/C [25]: 56%
- viability, T/C [26]: 59.8%
- viability, T/C [27]: 55.9%

Structure (SMILES): O=C(c1cc(Cc2n[nH]c(=O)c3ccccc23)ccc1F)N1CCN(C(=O)C2CC2)CC1 + CC1OCC2(CCN(c3cnc(Sc4ccnc(N)c4Cl)c(N)n3)CC2)C1N
- IC50 (second compound 0.1 µM): > 10 µM
- IC50 (second compound 0.316 µM): > 10 µM
- IC50 (second compound 1 µM): 9.44 µM
- IC50 (second compound 3.16 µM): < 0.0316 µM
- IC50 (second compound 10 µM): < 0.0316 µM
- viability, T/C [2]: 73.2%
- viability, T/C [3]: 73.4%
- viability, T/C [4]: 82.2%
- viability, T/C [5]: 80.1%
- viability, T/C [6]: 82.3%
- viability, T/C (second compound 0.1 µM, first compound 10 µM): 53.7%
- viability, T/C [8]: 60.9%
- viability, T/C [9]: 67.9%
- viability, T/C [10]: 65.8%
- viability, T/C [11]: 67.3%
- viability, T/C [12]: 61.3%
- viability, T/C (second compound 0.316 µM, first compound 10 µM): 40.1%
- viability, T/C [14]: 101%
- viability, T/C [15]: 106%
- viability, T/C [16]: 102%
- viability, T/C [17]: 101%
- viability, T/C [18]: 88.5%
- viability, T/C (second compound 1 µM, first compound 10 µM): 47.8%
- viability, T/C [20]: 36.6%
- viability, T/C [21]: 40.9%
- viability, T/C [22]: 41.4%
- viability, T/C [23]: 34.8%
- viability, T/C [24]: 36.8%
- viability, T/C (second compound 3.16 µM, first compound 10 µM): 24.9%
- viability, T/C [26]: 33.1%
- viability, T/C [27]: 33.1%
- outcome [28]: inactive
- viability, T/C [29]: 28%
- viability, T/C [30]: 23.7%
- viability, T/C (second compound 10 µM, first compound 10 µM): 19%
